Set-up in all cases: key: 5: strong intensity; 4: medium intensity; 3: weak intensity; 2: very weak intensity; 1: no peak; N/A: not observed
One assay has as its system KgpF v 3.1. In words: Prenylation of artificial cyclic peptides with 10 μM KgpF v 3.1 (Example 11; Table 7). The note with it: KgpF v 3.1 10 μM. In kind it is biochemical, Microcystis aeruginosa. The protocol:
Reaction of the artificial cyclic peptide shown in Table 7 was made under conditions similar to (Conditions 11) and (Conditions 12) except that v8s/v11.1 was used as FIT system, KgpF v 3.1 was used as a prenylation modification enzyme, and the concentration of the KgpF v 3.1 was set at 10 μM. Here, KgpF v 3.1 is an enzyme having a higher purification degree and more improved specific activity than KgpF used under (Conditions 12).

The test system of a further assay is KgpF. In words: Prenylation of artificial cyclic peptides containing VW or WG sequence with 60 μM KgpF (Examples 12 and 13; Tables 8, 9, 10). The assay is classed as biochemical, Microcystis aeruginosa. The note with it: KgpF 60 μM, DMAPP 2 mM, 37° C., 18 hours. The protocol:
The artificial cyclic peptides shown in Table 8 and Table 9 were obtained by translation and synthesis in the artificial translation system (Conditions 15) developed by the present inventors. The peptides thus obtained were then reacted with 60 μM KgpF in the system shown in (Conditions 16) at 37° C. for 18 hours.
(Conditions 15) • FIT system: v8s/v11.1 • 19aa-Met: 0.5 mM • ClAc-D-Tyr-tRNA^fMetCUA: 90 μM • Reaction: 37° C., 60 min. • Scale: 2.5 μL scale
(Conditions 16) • Translated mixture amount: 2.5 μL (mixture obtained under (Conditions 15)) • KgpF: 60 μM • DMAPP: 2 mM • Reaction: 37° C., 18 hours
The artificial cyclic peptides shown in Table 10 were obtained by translation and synthesis in the artificial translation system (Conditions 17) developed by the present inventors. The peptides thus obtained were then reacted with 60 μM KgpF in the system shown in (Conditions 18) at 37° C. for 18 hours.
(Conditions 17) • FIT system: v8s/v11.1 • 19aa-Met: 0.5 mM • ClAc-D-Tyr-tRNA^fMetCUA: 90 μM • Reaction: 37° C., 60 min. • Scale: 2.5 μL scale
(Conditions 18) • Translated mixture amount: 2.5 μL (mixture obtained under (Conditions 17)) • KgpF: 60 μM • DMAPP: 2 mM • Reaction: 37° C., 18 hours

Another assay deals with OltF v 2.1. In words: Modification test of thioether-closed artificial cyclic peptides with 9.13 μM OltF v 2.1 (Example 16; Tables 11 and 12). In kind it is biochemical, Planktothrix. The settings on record: OltF v 2.1 9.13 μM, DMAPP 2 mM, 37° C., 18 hours. How it is done:
The artificial cyclic peptides shown in Table 11 and Table 12 were obtained by translation and synthesis in the artificial translation system (Conditions 23) developed by the present inventors. The peptides thus obtained were then reacted with 9.13 μM OltF in the system shown in (Conditions 24) at 37° C. for 18 hours. It is to be noted that OltF v 2.1 is an enzyme prepared from OltF used in (Conditions 22) while changing a purification manner.
(Conditions 23) • FIT system: v8s/v11.1 • 19aa-Met: 0.5 mM • ClAc-D or L-Tyr-tRNA^fMetCUA: 90 μM • Reaction: 37° C., 60 min. • Scale: 2.5 μL scale
(Conditions 24) • Translated mixture amount: 2.5 μL (mixture obtained under (Conditions 23)) • OltF v 2.1: 9.13 μM • DMAPP: 2 mM • Reaction: 37° C., 18 hours

Where [1] appears, read: Table 10, W at various positions.
The mark [2] stands for this setting: Table 9, VW sequence, various ring sizes.
The mark [3] stands for this setting: Table 8, VW sequence, various ring sizes.

Positions of bridges follow the written chain, without caps; N, C: chain ends. Non-standard residues stand in square brackets, D forms with d. No end group written: not given here.

KgpF, sequence (as listed by the source): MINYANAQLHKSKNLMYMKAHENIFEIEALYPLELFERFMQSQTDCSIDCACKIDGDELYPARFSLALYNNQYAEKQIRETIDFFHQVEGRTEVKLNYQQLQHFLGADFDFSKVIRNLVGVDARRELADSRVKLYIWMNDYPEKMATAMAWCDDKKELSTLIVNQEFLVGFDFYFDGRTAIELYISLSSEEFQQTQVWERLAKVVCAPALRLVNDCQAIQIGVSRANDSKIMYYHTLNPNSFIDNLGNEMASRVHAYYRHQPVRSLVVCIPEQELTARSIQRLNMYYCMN
OltF v 2.1, sequence (as listed by the source): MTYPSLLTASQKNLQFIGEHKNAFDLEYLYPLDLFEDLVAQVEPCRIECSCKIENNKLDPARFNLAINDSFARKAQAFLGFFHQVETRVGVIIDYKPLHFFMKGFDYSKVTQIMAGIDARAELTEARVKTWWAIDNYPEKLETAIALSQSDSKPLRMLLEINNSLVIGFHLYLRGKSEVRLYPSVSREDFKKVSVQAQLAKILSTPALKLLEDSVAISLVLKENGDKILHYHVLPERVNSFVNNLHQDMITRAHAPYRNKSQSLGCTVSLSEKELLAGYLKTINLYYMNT

As to “YG296-aMD5 ({CH2CO}-[dY]WYYAWDQTYKAFPC; thioether N-15 (inferred))”, in the assay with KgpF v 3.1, the “Peak intensity, The number of prenyl groups added 0” value was determined as 5; the “Peak intensity, The number of prenyl groups added 1” value is on record as 3; the “Peak intensity, The number of prenyl groups added 2” value came out at 1.
For the substance “YG402 ({CH2CO}-[dY]WGHDYRVYHTYPC; thioether N-14 (inferred))”, in the assay on KgpF (setting [1]), the “Peak intensity, The number of prenyl groups added 0” value is listed as 5 and the “Peak intensity, The number of prenyl groups added 1” value turned out to be 1.
Consider “YG291-PaktiL2 ({CH2CO}-[dY]WILITWPLVRRKC; thioether N-14 (inferred))”, for which, in the assay with KgpF v 3.1, the “Peak intensity, The number of prenyl groups added 0” value came out at 4 and the “Peak intensity, The number of prenyl groups added 1” value worked out at 4.
For “YG411 ({CH2CO}-[dY]HDYRYHTYPVWGC; thioether N-14 (inferred))”, in the assay with KgpF (setting [1]), the “Peak intensity, The number of prenyl groups added 0” value came out at 1 and the “Peak intensity, The number of prenyl groups added 1” value was 5.
In the case of “YG295-aML5 ({CH2CO}-[dY]ISWNEFNSPNWRFITC; thioether N-17 (inferred))”, in the assay on KgpF v 3.1, the “Peak intensity, The number of prenyl groups added 0” value amounted to 1; the “Peak intensity, The number of prenyl groups added 1” value was found to be 5; the “Peak intensity, The number of prenyl groups added 2” value amounted to 1.
As to “YG295 ({CH2CO}-[dY]ISWNEFNSPNWRFITC; thioether N-17 (inferred); not fully specified)”, in the assay on OltF v 2.1 (Table 11), the “Peak intensity, The number of prenyl groups added 0” value was 4; the “Peak intensity, The number of prenyl groups added 1” value is 3; the “Peak intensity, The number of prenyl groups added 2” value is on record as 1.
Take “DNT057 (Ac-[dY]RQFNRRTHYFWLPDC; thioether (positions not given here); not fully specified (bridges))”: in the assay on OltF v 2.1 (Table 12), the “Peak intensity, The number of prenyl groups added 0” value stood at 1 and the “Peak intensity, The number of prenyl groups added 1” value stood at 5.
The corresponding values for “DNT063 (Ac-[dY]NNRERGSDYYWYYPC; thioether (positions not given here); not fully specified (bridges))” are 2 and 5.
Turning to “YG297 ({CH2CO}-[dY]RQFNRRTHEVWNLDC; thioether N-16 (inferred))”, in the assay with OltF v 2.1 (Table 11), the “Peak intensity, The number of prenyl groups added 0” value amounted to 5 and the “Peak intensity, The number of prenyl groups added 1” value amounted to 4.
In the case of “YG296 ({CH2CO}-[dY]WYYAWDQTYKAFPC; thioether N-15 (inferred))”, in the assay with OltF v 2.1 (Table 11), the “Peak intensity, The number of prenyl groups added 0” value worked out at 3; the “Peak intensity, The number of prenyl groups added 1” value came out at 2; the “Peak intensity, The number of prenyl groups added 2” value is given as 1.
As to “YG289 ({CH2CO}-[dY]HDYRIWRYHTYPC; thioether N-14 (inferred))”, in the assay on OltF v 2.1 (Table 11), the “Peak intensity, The number of prenyl groups added 0” value is 1 and the “Peak intensity, The number of prenyl groups added 1” value was found to be 5.
In the case of “DNT034 (Ac-[dY]NNRERGSDYFWLPPC; thioether (positions not given here); not fully specified (bridges))”, in the assay with OltF v 2.1 (Table 12), the “Peak intensity, The number of prenyl groups added 0” value was 1 and the “Peak intensity, The number of prenyl groups added 1” value was determined as 5.
As for “YG293-MaL4 ({CH2CO}-[dY]TFRDVWIFYGSLLSRC; thioether N-17 (inferred))”, in the assay on KgpF v 3.1, the “Peak intensity, The number of prenyl groups added 0” value is reported as 1 and the “Peak intensity, The number of prenyl groups added 1” value is listed as 5.
For the substance “DNT066 (Ac-[dY]NNRERGSDVVWVVPC; thioether (positions not given here); not fully specified (bridges))”, in the assay with OltF v 2.1 (Table 12), the “Peak intensity, The number of prenyl groups added 0” value is listed as 4 and the “Peak intensity, The number of prenyl groups added 1” value was determined as 5.
For the substance “YG395 ({CH2CO}-[dY]HDYRVWGYHTPC; thioether N-13 (inferred))”, in the assay with KgpF (setting [2]), the “Peak intensity, The number of prenyl groups added 0” value is recorded as 1 and the “Peak intensity, The number of prenyl groups added 1” value is listed as 5.
In the case of “YG386 ({CH2CO}-[dY]VWCYPRG; thioether N-4)”, in the assay with KgpF (setting [3]), the “Peak intensity, The number of prenyl groups added 0” value came to 1 and the “Peak intensity, The number of prenyl groups added 1” value worked out at 5.
In the same order, the values of “YG390 ({CH2CO}-[dY]RVWGYPC; thioether N-8)” are 1 and 5.
For the substance “YG299 (Ac-[dY]CDVSGRWGYFPC; thioether (positions not given here); not fully specified (bridges))”, in the assay with OltF v 2.1 (Table 11), the “Peak intensity, The number of prenyl groups added 0” value is reported as 3 and the “Peak intensity, The number of prenyl groups added 1” value was 5.

For the origin of these results see US20220275534A1, “Peptide Library Production Method” (The University of Tokyo, priority 2018, published 2022).
